# Measurements published in patent US20060128695A1, “Cyclic nucleotide phosphodiesterase inhibitors, preparation and uses” (NEURO3D, priority 2002, published 2006).
# Columns and labels:
# Format in all cases: biochemical, bovine
# PDE1 = assay: Selectivity: inhibition of PDE1, radioenzymatic phosphodiesterase assay; details: 10 μM test compound; vascular smooth muscle
# Method: (§1) A 3 g segment of bovine aortic media cut into pieces with scissors was homogenized with an ultra-turrax then a potter glass/glass homogenizer in 7 volumes by weight of buffer A containing a protease inhibitor cocktail (20 mM Tris-HCl, 0.25 M saccharose, 2 mM magnesium acetate, 1 mM dithiothreitol, 5 mM EGTA, 2000 U/ml aprotinin, 10 mg/l leupeptin and 10 mg/l soya trypsic inhibitor). The homogenizate was centrifuged at 105,000 g for 1 hour. The supernatant was loaded on a DEAE-Sephacel column (15 x 1.6 cm) pre-equilibrated with buffer B (buffer A without the saccharose, EGTA and protease inhibitors). The column was washed until there was no detectable absorption at 280 nm, then eluted with a linear gradient of NaCl (0-0.5 M) in buffer B. 3-ml fractions were collected and enzyme activity was determined under the conditions described hereinbelow to localize the different enzymes PDE1, PDE3, PDE4 and PDE5 which were aliquoted and frozen at −80° C. (Lugnier et al., Biochem. Phamacol., 1986, 35: 1746-1751). PDE2 was prepared from bovine endothelial cells by the same methods (Lugnier and Schini, Biochem. Pharmacol., 1990, 39: 75-84).
# (§2) Cyclic nucleotide phosphodiesterase activity was determined by a radioenzymatic method using tritium-labelled cyclic GMP or AMP (1 μM) as substrate (Lugnier et al., 1986). ^3H-labelled adenosine or guanosine monophosphate formed by hydrolysis of the radiolabelled cyclic nucleotide was then converted to ^3H-labelled adenosine or guanosine in a second reaction with […] in excess. The nucleoside formed was separated from the nucleotides by anion exchange chromatography. Nucleoside radioactivity was determined by liquid scintillation counting. […]
# (§3) The activity of the compounds was evaluated on other phosphodiesterase isoforms, particularly basal state or calmodulin-activated PDEl from vascular smooth muscle, PDE3, PDE4 and PDE5 from vascular smooth muscle.
# (§4) The results obtained are presented in Tables 1 and 2 hereinbelow and are expressed as the percentage inhibition of enzymatic activity produced by […] of the test compound.
# PDE2 = molecular target: T1, PDE2 (Bos taurus, UniProt P14099); assay: Inhibition of PDE2, radioenzymatic phosphodiesterase assay
# T1 construct: PDE2 was prepared from bovine endothelial cells by the same methods; endogenous in cells; host or cells: bovine endothelial cells
# T1 sequence (P14099 1-921): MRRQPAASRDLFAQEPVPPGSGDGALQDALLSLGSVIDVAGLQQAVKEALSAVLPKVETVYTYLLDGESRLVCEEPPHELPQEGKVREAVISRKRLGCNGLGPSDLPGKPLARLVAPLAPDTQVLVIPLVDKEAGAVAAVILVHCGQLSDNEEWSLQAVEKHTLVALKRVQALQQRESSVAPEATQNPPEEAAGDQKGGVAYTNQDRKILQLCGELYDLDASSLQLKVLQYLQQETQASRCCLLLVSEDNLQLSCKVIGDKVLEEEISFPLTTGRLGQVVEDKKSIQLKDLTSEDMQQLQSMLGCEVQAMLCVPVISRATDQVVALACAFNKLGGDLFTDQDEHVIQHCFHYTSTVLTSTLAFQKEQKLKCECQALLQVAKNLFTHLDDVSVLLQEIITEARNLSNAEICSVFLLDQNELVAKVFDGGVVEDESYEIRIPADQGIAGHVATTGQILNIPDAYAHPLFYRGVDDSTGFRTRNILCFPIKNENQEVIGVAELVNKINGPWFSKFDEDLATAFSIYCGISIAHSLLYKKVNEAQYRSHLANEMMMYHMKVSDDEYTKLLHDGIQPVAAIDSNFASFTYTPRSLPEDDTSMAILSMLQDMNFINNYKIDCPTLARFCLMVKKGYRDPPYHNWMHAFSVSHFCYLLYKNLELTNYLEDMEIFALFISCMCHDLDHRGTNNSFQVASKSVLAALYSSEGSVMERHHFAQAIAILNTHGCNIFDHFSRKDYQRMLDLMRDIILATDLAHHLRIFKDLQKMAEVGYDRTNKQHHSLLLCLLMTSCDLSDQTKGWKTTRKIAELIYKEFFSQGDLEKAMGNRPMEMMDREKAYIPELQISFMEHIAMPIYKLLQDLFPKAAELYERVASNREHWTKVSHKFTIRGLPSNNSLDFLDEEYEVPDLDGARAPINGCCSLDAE
# PDE3 = molecular target: T2, PDE3 (Bos taurus, UniProt A0A3Q1M1E8); assay: Selectivity: inhibition of PDE3, radioenzymatic phosphodiesterase assay; details: 10 μM test compound; vascular smooth muscle; read-out: PDE3 percentage inhibition at 10 μM
# T2 sequence (A0A3Q1M1E8 1-1126): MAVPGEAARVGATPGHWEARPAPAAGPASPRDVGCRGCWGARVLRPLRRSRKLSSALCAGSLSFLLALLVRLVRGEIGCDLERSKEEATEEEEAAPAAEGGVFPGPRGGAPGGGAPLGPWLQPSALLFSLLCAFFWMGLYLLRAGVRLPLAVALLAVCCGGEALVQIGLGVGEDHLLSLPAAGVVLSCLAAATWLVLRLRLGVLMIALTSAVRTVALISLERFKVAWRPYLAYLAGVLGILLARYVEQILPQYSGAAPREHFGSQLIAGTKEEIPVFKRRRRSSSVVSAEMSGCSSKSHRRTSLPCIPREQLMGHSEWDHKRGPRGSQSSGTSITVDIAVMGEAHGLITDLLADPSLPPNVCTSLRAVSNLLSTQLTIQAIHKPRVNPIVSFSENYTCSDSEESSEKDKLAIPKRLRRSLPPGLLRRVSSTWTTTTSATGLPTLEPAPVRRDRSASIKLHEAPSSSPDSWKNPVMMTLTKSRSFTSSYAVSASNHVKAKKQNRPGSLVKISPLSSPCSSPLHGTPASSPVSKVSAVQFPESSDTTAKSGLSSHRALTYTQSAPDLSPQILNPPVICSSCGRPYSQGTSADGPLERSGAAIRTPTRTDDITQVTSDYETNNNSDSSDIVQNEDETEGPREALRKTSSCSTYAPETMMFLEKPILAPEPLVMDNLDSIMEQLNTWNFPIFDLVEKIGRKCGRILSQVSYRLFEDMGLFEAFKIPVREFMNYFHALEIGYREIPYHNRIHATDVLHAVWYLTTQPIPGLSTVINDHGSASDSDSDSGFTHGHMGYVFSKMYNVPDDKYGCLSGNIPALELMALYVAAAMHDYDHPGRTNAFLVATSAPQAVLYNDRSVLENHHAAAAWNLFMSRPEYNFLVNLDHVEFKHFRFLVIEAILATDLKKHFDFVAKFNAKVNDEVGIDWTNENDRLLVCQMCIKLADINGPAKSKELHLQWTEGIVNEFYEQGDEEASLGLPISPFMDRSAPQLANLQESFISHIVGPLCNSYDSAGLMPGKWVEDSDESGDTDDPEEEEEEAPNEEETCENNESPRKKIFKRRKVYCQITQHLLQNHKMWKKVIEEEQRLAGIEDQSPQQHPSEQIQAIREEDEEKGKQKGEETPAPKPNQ
# Method: as §1, §2, §3, §4
structure (smiles),measurement,setting,value
"COc1cc2c(cc1OC)N(C)C(=O)CN=C2c1cccc(C(N)=O)c1 [Compound 5a, 3-(7,8-dimethoxy-1-methyl-2-oxo-2,3-dihydro-1H-1,4-benzodiazepin-5-yl)-benzamide]",PDE1 percentage inhibition at 10 μM,PDE1,13.2%
same,IC50,PDE2,1500 nM
same,inhibition at 10 µM,PDE3,5%
